The structures appear in SMILES notation. Several values for one entry are separate records, joined by “and”; a condition that tells them apart may be missing. Identical values can stand only once.

Usually IC50 stands for the concentration that gives 50% inhibition.

One data set concerns the target CYP2D6 (Homo sapiens (Human), UniProt P10635). In words: CYP inhibition, fluorescent, CYP2D6. In kind it is in vitro ADME. How it is done: (§1) The compounds listed below were tested in various metabolic stability and CYP inhibition assays.
In a further data set the target is CYP3A4 (Homo sapiens (Human), UniProt P08684). In words: CYP inhibition, fluorescent, CYP3A4. In kind it is in vitro ADME. How it is done: as §1
Another data set has as its target CYP2C19 (Homo sapiens (Human), UniProt P33261). Briefly: CYP inhibition, fluorescent, CYP2C19. In kind it is in vitro ADME. The procedure:
as §1

The next data set addresses CYP2C9 (Homo sapiens (Human), UniProt P11712). In words: CYP inhibition, fluorescent, CYP2C9. In kind it is in vitro ADME. The procedure: as §1
For another data set, the target named is PPARγ (Homo sapiens (Human), UniProt P37231). In words: PPARγ agonist assay (HTRF, PPARγ-NCOR interaction). Type of data set: biochemical. The note with it: read-out: PPAR γ assay (HTRF) for agonists of this nuclear receptor - IC50. From the text:
Significant safety issues are associated with the clinical use of PPARγ agonists (increased risk of death, myocardial infarction, stroke, congestive heart failure, hepatotoxicity, peripheral edema, weight gain and carcinogenicity^1-4). We wanted to characterize the compounds we identified in a pilot screen as potential PPARγ agonists. The PPARγ assay is based on agonist-sensitive interaction of the GST-tagged ligand-binding domain (LRD) of the nuclear receptor PPARγ with the biotinylated corepressor NCOR peptide (FIG. 8).
Assay reactions are performed in a final volume of 16 ul.
In well of the 384-well assay plate, mix 6 ul of PPARγ solution, 4 ul of NCOR2 solution and 4 μl of Rosi solution. Test compounds diluted from DMSO stocks to 4× assay concentration in 1×HTRF, 100 mM KF buffer may be dispensed to well instead of Rosi. Negative control wells contained DMSO solvent alone; positive control well contained […]. […] Two μl of detection mix was added per well. […] The plate was incubated for 16 hrs at 4° C.
HTRF signal was measured in the SpectraMax M5e Multimode Plate Reader (Molecular Device). Fluorescence was excited at 337 nm. […] The signal was expressed as the ratio of fluorescence intensity: Flu668/Flu620×10,000. […]
(Time-resolved FRET reads energy transfer from a long-lived donor to a nearby acceptor.)

Data set [1] can be described thus: Metabolic stability in liver microsomes (HLM). Type of data set: in vitro ADME, human. How it is done: as §1
(Liver microsomes are vesicles of endoplasmic reticulum, rich in cytochrome P450 enzymes.)

The next data set has as its target RBP4-TTR interaction (Homo sapiens (Human), UniProt P02753). In words: HTRF (TR-FRET) assay for antagonists of retinol-induced RBP4-TTR interaction. In kind it is biochemical. The note with it: in the presence of 1 μM retinol. From the text:
TR-FRET Assay for Retinol-Induced RBP4-TTR Interaction
Binding of a desired RBP4 antagonist displaces retinol and induces hindrance for RBP4-TTR interaction resulting in the decreased FRET signal (FIG. 7). Bacterially expressed MBP-RBP4 and untagged TTR were used in this assay. For the use in the TR-FRET assay, the maltose binding protein (MBP)-tagged human RBP4 fragment (amino acids 19-201) was expressed in the Gold(DE3)pLysS E. coli strain (Stratagene) using the pMAL-c4x vector. Following cell lysis, recombinant RBP4 was purified from the soluble fraction using the ACTA FPLC system (GE Healthcare) equipped with the 5-ml the MBP Trap HP column. Human untagged TTR was purchased from Calbiochem. Untagged TTR was labeled directly with Eu^3+ Cryptate-NHS using the HTRF Cryptate Labeling kit from CisBio following the manufacturer's recommendations. HTRF assay was performed in white low volume 384 well plates (Greiner-Bio) in a final assay volume of 16 μl per well. […] Titration of test compounds in this assay was conducted in the presence of 1 μM retinol. […] TR-FRET signal was measured in the SpectraMax M5e Multimode Plate Reader (Molecular Device). […] The TR-FRET signal was expressed as the ratio of fluorescence intensity: Flu665/Flu620×10,000.
(§2) The compounds listed below were tested in two in vitro assays, RBP4 binding (SPA) and retinol-dependent RBP4-TTR interaction (HTRF) (Table 1).

The target in another data set is human RBP4 (Homo sapiens (Human), UniProt P02753). Briefly: SPA binding assay for RBP4 (scintillation proximity, 3H-retinol displacement). The settings on record: 10 nM 3H-retinol, 50 nM biotinylated RBP4. How it is done: Scintillation Proximity RBP4 Binding Assay
Untagged human RBP4 purified from the urine of tubular proteinuria patients was purchased from Fitzgerald Industries International. It was biotinylated using the EZ-Link Sulfo-NHS-LC-Biotinylation kit from Pierce following the manufacturer's recommendations. […] Nonspecific binding was determined in the presence of 20 μM of unlabeled retinol. The reaction mix was assembled in the dark under dim red light. The plates were sealed with clear tape (TopSeal-A: 96-well microplate, PerkinElmer), wrapped in the aluminum foil, and allowed to equilibrate 6 hours at room temperature followed by overnight incubation at +4° C. Radiocounts were measured using a TopCount NXT counter (Packard Instrument Company).
as §2
Background: In a scintillation proximity assay essentially only radioactivity close to the scintillant gives light.

For a further data set, the target named is serum RBP4 (Mus musculus (Mouse), UniProt Q00724). In words: Serum RBP4 reduction in Balb/c mice after a single oral administration. Type of data set: in vivo. The settings on record: at 6 hr timepoint. How it is done:
Pharmacodynamic Studies of 7a and 7p in Balb/c Mice Following a Single Oral Administration
Animal protocols were approved by the Institutional Animal Care and Use Committee of Columbia University and complied with guidelines set forth by The Association for Research in Vision and Ophthalmology. Compounds were prepared as a suspension in 0.9% NaCl, 2% Tween 80 for oral administration. Compounds were administered to Balb/c mice in a volume of 100 μL through oral gavage. The doses used were 15 mg/kg, 25 mg/kg and 35 mg/kg for 7a while two doses, 25 mg/kg and 35 mg/kg, were tested for DENG-31(FFB-0000082). Blood samples were collected at pre-dose and 1 hr, 2 hr, 4 hr, 6 hr, 8 hr, and 24 hr timepoints. Whole blood was drawn into a centrifuge tube and was let clot at room temperature for 30 min followed by centrifugation at 2,000×g for 15 minutes at +4° C. to collect serum. Serum RBP4 was measured using the RBP4 (mouse/rat) dual ELISA kit (AdipoGen) following the manufacturer's instructions.
In order to attain this objective, the effect of oral compound administration was studied in mice. Three doses of compound 7a and two doses of 7p were tested in Balb/c mice assay for reduction of serum RBP4.

Chain of CYP2D6 (P10635 whole entry, species assumed): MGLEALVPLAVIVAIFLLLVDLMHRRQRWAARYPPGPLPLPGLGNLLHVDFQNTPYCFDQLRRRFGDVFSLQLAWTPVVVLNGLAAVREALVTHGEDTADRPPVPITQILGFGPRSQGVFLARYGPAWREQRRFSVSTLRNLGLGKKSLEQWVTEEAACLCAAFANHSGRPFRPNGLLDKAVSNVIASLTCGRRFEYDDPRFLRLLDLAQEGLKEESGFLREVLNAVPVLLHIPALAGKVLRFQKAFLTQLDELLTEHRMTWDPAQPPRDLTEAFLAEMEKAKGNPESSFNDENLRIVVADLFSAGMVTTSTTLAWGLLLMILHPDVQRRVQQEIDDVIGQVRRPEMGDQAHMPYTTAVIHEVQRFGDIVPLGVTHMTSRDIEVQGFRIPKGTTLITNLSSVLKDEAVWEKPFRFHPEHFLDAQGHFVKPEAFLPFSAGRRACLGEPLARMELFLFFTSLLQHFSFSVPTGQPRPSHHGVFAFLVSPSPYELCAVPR
Chain of PPARγ (P37231 204-505): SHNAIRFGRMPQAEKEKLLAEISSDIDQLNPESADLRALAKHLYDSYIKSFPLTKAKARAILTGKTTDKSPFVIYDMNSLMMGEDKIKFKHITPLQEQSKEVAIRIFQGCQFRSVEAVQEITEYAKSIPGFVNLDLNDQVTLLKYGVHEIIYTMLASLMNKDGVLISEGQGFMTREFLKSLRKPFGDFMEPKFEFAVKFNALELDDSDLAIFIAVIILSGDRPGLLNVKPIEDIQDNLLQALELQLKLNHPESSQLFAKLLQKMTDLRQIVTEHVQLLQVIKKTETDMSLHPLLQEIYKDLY
Chain of CYP2C19 (P33261 whole entry, species assumed): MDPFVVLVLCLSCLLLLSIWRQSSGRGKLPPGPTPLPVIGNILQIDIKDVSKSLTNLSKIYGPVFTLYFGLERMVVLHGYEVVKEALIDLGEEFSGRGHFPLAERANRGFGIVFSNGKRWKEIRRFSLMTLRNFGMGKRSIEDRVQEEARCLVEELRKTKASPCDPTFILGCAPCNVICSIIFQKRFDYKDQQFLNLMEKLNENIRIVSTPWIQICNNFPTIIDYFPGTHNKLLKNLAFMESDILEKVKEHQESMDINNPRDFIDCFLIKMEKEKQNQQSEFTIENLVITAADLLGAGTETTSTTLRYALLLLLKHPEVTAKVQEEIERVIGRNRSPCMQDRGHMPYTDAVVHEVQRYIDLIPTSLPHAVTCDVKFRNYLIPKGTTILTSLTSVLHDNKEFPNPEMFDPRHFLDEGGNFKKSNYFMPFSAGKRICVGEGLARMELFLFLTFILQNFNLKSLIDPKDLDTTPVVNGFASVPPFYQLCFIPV
Chain of CYP3A4 (P08684 whole entry, species assumed): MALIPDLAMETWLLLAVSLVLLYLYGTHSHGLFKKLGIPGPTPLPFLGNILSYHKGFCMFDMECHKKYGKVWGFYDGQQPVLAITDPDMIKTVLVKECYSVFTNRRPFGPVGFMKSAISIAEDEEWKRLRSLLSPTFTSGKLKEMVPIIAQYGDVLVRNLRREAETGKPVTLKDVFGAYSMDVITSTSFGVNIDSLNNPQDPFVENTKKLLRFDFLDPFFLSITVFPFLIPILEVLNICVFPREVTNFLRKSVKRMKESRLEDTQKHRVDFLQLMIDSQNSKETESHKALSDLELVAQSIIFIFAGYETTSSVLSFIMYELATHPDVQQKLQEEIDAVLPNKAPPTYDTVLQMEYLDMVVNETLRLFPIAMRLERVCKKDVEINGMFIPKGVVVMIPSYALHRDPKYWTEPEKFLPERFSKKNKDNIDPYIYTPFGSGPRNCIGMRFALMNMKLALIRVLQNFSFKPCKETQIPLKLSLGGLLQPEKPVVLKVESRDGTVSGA
Chain of CYP2C9 (P11712 whole entry, species assumed): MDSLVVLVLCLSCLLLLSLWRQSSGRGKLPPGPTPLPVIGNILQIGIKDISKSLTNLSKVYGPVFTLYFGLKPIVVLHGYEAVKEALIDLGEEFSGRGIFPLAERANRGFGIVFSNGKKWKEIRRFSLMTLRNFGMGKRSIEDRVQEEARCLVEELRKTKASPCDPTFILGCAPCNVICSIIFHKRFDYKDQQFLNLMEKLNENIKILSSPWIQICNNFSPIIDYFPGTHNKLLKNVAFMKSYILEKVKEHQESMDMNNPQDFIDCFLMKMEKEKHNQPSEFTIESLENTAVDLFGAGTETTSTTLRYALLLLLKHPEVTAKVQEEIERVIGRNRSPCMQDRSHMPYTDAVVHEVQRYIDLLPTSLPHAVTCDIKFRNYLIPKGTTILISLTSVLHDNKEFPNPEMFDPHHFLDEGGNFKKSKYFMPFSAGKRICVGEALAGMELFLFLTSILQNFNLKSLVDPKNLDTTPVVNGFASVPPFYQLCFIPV

`O=C(c1nc2ncc(CCO)cn2n1)N1C[C@H]2C[C@@H](c3ccccc3C(F)(F)F)C[C@H]2C1` [Compound 7j]: the IC50 is > 100000 nM on CYP2D6; > 100000 nM against CYP3A4; > 100000 nM against CYP2C19; 60000 nM against CYP2C9; > 100000 nM at PPARγ; 200 nM on RBP4-TTR interaction. In addition, the IC50 at human RBP4 was determined as 16 nM. In addition, in [1], the “Metabolic stability in liver microsomes: % Remaining at 30 min, HLM” value amounted to 73%.
Consider `Cc1ccn2c(C(=O)N3C[C@H]4C[C@@H](c5ccccc5C(F)(F)F)C[C@H]4C3)nnc2n1` [Compound 7g], for which the IC50 is > 100000 nM against CYP2D6; > 100000 nM against CYP3A4; > 100000 nM against CYP2C19; > 100000 nM on PPARγ; 415 nM at RBP4-TTR interaction; 45 nM at human RBP4. The “Metabolic stability in liver microsomes: % Remaining at 30 min, HLM” value in data set [1] was 61%.
Consider `O=C(c1nc2ncc(CCO)cn2n1)N1C[C@@H]2CN(c3ccccc3C(F)(F)F)C[C@@H]2C1` [Compound 7o], for which the IC50 at CYP2D6 was > 20000 nM; against CYP3A4, > 20000 nM; against CYP2C19, > 20000 nM; at PPARγ it was > 100000 nM; at RBP4-TTR interaction it was 257 nM; at human RBP4 it was 22 nM.
`O=C(c1nc2ncc(CCO)cn2n1)N1C[C@@H]2CN(c3cc(F)ccc3C(F)(F)F)C[C@@H]2C1` [Compound 7q]: the values for the concentration for half-maximal inhibition (IC50) at PPARγ, on RBP4-TTR interaction and on human RBP4 were > 100000 nM, 491 nM and 31 nM, respectively. In addition, in data set [1], the “Metabolic stability in liver microsomes: % Remaining at 30 min, HLM” value was 26%.
With `O=C(c1nc2ncc(CCCl)cn2n1)N1C[C@H]2C[C@@H](c3ccccc3C(F)(F)F)C[C@H]2C1` [Compound 7n], the IC50 is > 100000 nM on PPARγ, 628 nM on RBP4-TTR interaction and 67 nM at human RBP4.
On to `Cc1cnc2nc(C(=O)N3C[C@H]4C[C@@H](c5ccccc5C(F)(F)F)C[C@H]4C3)nn2c1` [Compound 7e], for which the concentration for half-maximal inhibition (IC50) was 12400 nM and 36000 nM on CYP2D6; > 100000 nM against CYP2C19; 16000 nM and 50000 nM on CYP2C9; > 100000 nM on PPARγ. For the same compound, the “Metabolic stability in liver microsomes: % Remaining at 30 min, HLM” value in data set [1] was 85% and 66%.
As for `O=C(c1nc2ncc(CCO)cn2n1)N1C[C@@H]2CN(c3cc(F)ccc3C(F)(F)F)C[C@@H]2C1` [Compound 7p], the IC50 was > 20000 nM on CYP2D6; > 20000 nM against CYP3A4; > 20000 nM against CYP2C19; > 20000 nM against CYP2C9; > 100000 nM at PPARγ; 150 nM on RBP4-TTR interaction. The compound also yielded an IC50 on human RBP4 of 37 nM. Also, the “Metabolic stability in liver microsomes: % Remaining at 30 min, HLM” value in data set [1] was 73%. Moreover, the “maximum serum RBP4 reduction” value turned out to be 89% on serum RBP4 (single 25 mg/kg PO) and 87% on serum RBP4 (single 35 mg/kg PO).
Take `Cc1ccnc2nc(C(=O)N3C[C@H]4C[C@@H](c5ccccc5C(F)(F)F)C[C@H]4C3)nn12` [Compound 7d]: the IC50 at PPARγ was > 100000 nM; at RBP4-TTR interaction, 306 nM and 1850 nM and 2800 nM; at human RBP4, 122 nM.
As for `COCCc1cnc2nc(C(=O)N3C[C@H]4C[C@@H](c5ccccc5C(F)(F)F)C[C@H]4C3)nn2c1` [Compound 7k], the values for the IC50 at PPARγ, at RBP4-TTR interaction and at human RBP4 were > 100000 nM, 1010 nM and 67 nM, respectively.

The values are drawn from patent US12168664B2, “Triazolopyrimidines, their preparation and use” (THE TRUSTEES OF COLUMBIA UNIVERSITY IN THE CITY OF NEW YORK, priority 2018, dated 2024).
